Measurements: PubChem BioAssay AID504896 (The Scripps Research Institute Molecular Screening Center, 2011)

molecular target: cAMP-dependent protein kinase type I-alpha regulatory subunit (Bos taurus) + cAMP-dependent protein kinase catalytic subunit beta (Mus musculus) (UniProt P00514+P68181); assay: PKA-R1A complex activators, counter-screen titration – biochemical, Cy5-IP20 fluorescence polarization, 1536-well, triplicate, counter-screen for PKA-R2B activator project, dose response (AID 504896); conditions: PKA-R1A holoenzyme, activation

Row | SMILES | EC50 [nM]
1 | Nc1ncnc2c1nc(Sc1ccc(Cl)cc1)n2[C@@H]1O[C@@H]2COP(=O)(O)O[C@H]2[C@H]1O | 32.7
2 | Nc1nc2c(nc(Br)n2[C@@H]2O[C@@H]3COP(=O)(O)O[C@H]3[C@H]2O)c(=O)[nH]1 | 7830
3 | CCCC(=O)Nc1ncnc2c1ncn2[C@@H]1O[C@@H]2OP(=O)(O)OC[C@H]2[C@H]1OC(=O)CCC | 6700
4 | CCOP1(=O)OCC2OC(n3cnc4c(N)ncnc43)C(O)C2O1 (stereo not given) | 2680
5 | Nc1ncnc2c1nc(Br)n2[C@@H]1O[C@@H]2COP(=O)(O)O[C@H]2[C@H]1O | 34.4
